Source: patent publication US9718828B2 (MERCK SHARP & DOHME CORP., priority 2011, dated 2017)
Counter-ions that a name gives are not always drawn.

molecular target: Btk enzyme (His-Btk) (Homo sapiens (Human), UniProt Q06187); test: Btk enzyme activity, IMAP fluorescence polarization assay (Assay Method A); conditions: not given
Sequence (Q06187 whole entry): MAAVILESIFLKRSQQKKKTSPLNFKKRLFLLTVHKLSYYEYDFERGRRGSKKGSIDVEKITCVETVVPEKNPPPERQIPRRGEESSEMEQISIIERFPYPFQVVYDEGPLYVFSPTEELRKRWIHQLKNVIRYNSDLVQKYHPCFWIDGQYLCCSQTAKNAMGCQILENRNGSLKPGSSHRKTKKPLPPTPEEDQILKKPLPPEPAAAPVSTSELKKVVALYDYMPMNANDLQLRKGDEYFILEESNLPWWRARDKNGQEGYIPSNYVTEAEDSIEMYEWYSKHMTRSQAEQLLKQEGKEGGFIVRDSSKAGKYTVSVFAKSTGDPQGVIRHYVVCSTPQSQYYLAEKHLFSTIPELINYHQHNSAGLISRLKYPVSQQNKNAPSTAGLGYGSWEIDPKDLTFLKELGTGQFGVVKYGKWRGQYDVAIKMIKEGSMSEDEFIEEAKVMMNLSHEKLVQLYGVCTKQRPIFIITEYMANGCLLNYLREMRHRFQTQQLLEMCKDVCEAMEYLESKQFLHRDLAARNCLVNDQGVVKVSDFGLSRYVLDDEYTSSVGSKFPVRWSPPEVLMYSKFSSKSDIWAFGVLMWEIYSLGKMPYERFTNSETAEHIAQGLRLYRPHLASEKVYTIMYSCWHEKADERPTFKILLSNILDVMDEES

Row | EC50 | SMILES
1 | 10 to 100 nM | COc1cc(-c2nc([C@H]3CC[C@H](O)CC3)n3ccnc(N)c23)ccc1C(=O)Nc1ccccn1 [Example 9, 4-(8-amino-3-((trans)-4-hydroxycyclohexyl)imidazo[1,5-a]pyrazin-1-yl)-2-methoxy-N-(pyridin-2-yl)benzamide]
2 | < 10 nM | CCC(=O)N1CCC[C@@H](c2nc(-c3ccc(C(=O)Nc4cc(C#N)ccn4)cc3)c3c(N)nccn23)C1 [Example 96, (R)-4-(8-amino-3-(1-propionylpiperidin-3-yl)imidazo[1,5-a]pyrazin-1-yl)-N-(4-cyanopyridin-2-yl)benzamide]
3 | 10 to 100 nM | COCC1(C(=O)N2CCC[C@@H](n3nc(-c4ccc(C(=O)Nc5cc(C(F)(F)F)ccn5)cc4)c4c(N)ncnc43)C2)CCC1 [Example 272, (R)-4-(4-amino-1-(1-(1-(methoxymethyl)cyclobutanecarbonyl)piperidin-3-yl)-1H-pyrazolo[3,4-d]pyrimidin-3-yl)-N-(4-(trifluoromethyl)pyridin-2-yl)benzamide]
4 | 10 to 100 nM | CCc1cnc(NC(=O)c2ccc(-c3nc([C@H]4CC[C@@H](OC)CC4)n4ccnc(N)c34)cc2)s1 [Example 39, 4-(8-amino-3-((cis)-4-methoxycyclohexyl)imidazo [1,5-a]pyrazin-1-yl)-N-(5-ethylthiazol-2-yl)benzamide]
5 | 10 to 100 nM | CN(C)C(=O)C(=O)N1CCC[C@@H](c2nc(-c3ccc(C(=O)Nc4cc(C5CC5)ccn4)cc3)c3c(N)nccn23)C1 [Example 111, (R)-4-(8-amino-3-(1-(2-(dimethylamino)-2-oxoacetyl)piperidin-3-yl)imidazo[1,5-a]pyrazin-1-yl)-N-(4-cyclopropylpyridin-2-yl)benzamide]
6 | < 10 nM | COCCC(=O)N1CCC[C@@H](c2nc(-c3ccc(C(=O)Nc4ccccn4)cc3)c3c(N)nccn23)C1 [Example 50, (R)-4-(8-amino-3-(1-(3-methoxypropanoyl)piperidin-3-yl)imidazo[1,5-a]pyrazin-1-yl)-N-(pyridin-2-yl)benzamide]
7 | 10 to 100 nM | CC[C@H](C)C(=O)N1CCC[C@@H](c2nc(-c3ccc(C(=O)Nc4ccccn4)cc3)c3c(N)nccn23)C1 [Example 58, 4-(8-amino-3-((R)-1-((S)-2-methylbutanoyl)piperidin-3-yl)imidazo[1,5-a]pyrazin-1-yl)-N-(pyridin-2-yl)benzamide]
8 | 10 to 100 nM | COCc1n[nH]c2c1CC(c1nc(-c3ccc(C(=O)Nc4cc(C(F)(F)F)ccn4)cc3)c3c(N)nccn13)CC2 (stereo not drawn) [Example 250, 4-(8-amino-3-(3-(methoxymethyl)-4,5,6,7-tetrahydro-1H-indazol-5-yl)imidazo[1,5-a]pyrazin-1-yl)-N-(4-(trifluoromethyl)pyridin-2-yl)benzamide]
9 | < 10 nM | N#Cc1ccnc(NC(=O)c2ccc(-c3nc(C4CCCC4)n4ccnc(N)c34)cc2)c1 [Example 44, 4-(8-amino-3-cyclopentylimidazo[1,5-a]pyrazin-1-yl)-N-(4-cyanopyridin-2-yl)benzamide, TFA salt]
10 | 10 to 100 nM | N#Cc1ccnc(NC(=O)c2ccc(-c3nc(C4CCOCC4)n4ccnc(N)c34)cc2)c1 [Example 26, 4-(8-amino-3-(tetrahydro-2H-pyran-4-yl)imidazo [1,5-a]pyrazin-1-yl)-N-(4-cyanopyridin-2-yl)benzamide]
11 | < 10 nM | CCC(=O)N1CCC[C@@H](c2nc(-c3ccc(C(=O)Nc4cc(C5CC5)ccn4)cc3)c3c(N)nccn23)C1 [Example 60, (R)-4-(8-amino-3-(1-propionylpiperidin-3-yl)imidazo[1,5-a]pyrazin-1-yl)-N-(4-cyclopropylpyridin-2-yl)benzamide]

same assay, conditions: read-out: EC50 Btk activity values - Assay Method A; IMAP-FP, 60 min pre-incubation, 5 μM ATP; class 100-1000 is given as ≧100 nM-<1 μM

Row | EC50 | SMILES
12 | < 10 nM | Nc1nccn2c(N3CCCC(C(=O)N[C@H]4CCOC4)C3)nc(-c3ccc(C(=O)Nc4cc(C(F)(F)F)ccn4)cc3)c12 (stereo partly drawn) [Example 237, 1-(8-amino-1-(4-(4-(trifluoromethyl)pyridin-2-ylcarbamoyl)phenyl)imidazo[1,5-a]pyrazin-3-yl)-N-((S)-tetrahydrofuran-3-yl)piperidine-3-carboxamide, TFA salt]
13 | < 10 nM | CCC(=O)N[C@H]1CCC[C@@H](c2nc(-c3ccc(C(=O)Nc4cc(C(F)(F)F)ccn4)cc3)c3c(N)nccn23)C1 (relative stereo) [Example 161, 4-(8-amino-3-((cis)-3-propionamidocyclohexyl)imidazo[1,5-a]pyrazin-1-yl)-N-(4-(trifluoromethyl)pyridin-2-yl)benzamide]
14 | < 10 nM | CCOCCC(=O)N1CCC[C@@H](n2nc(-c3ccc(C(=O)Nc4cc(C(F)(F)F)ccn4)cc3)c3c(N)ncnc32)C1 [Example 281, (R)-4-(4-amino-1-(1-(3-ethoxypropanoyl)piperidin-3-yl)-1H-pyrazolo[3,4-d]pyrimidin-3-yl)-N-(4-(trifluoromethyl)pyridin-2-yl)benzamide]
15 | < 10 nM | Nc1nccn2c([C@H]3[C@@H]4COC[C@@H]43)nc(-c3ccc(C(=O)Nc4cc(C(F)(F)F)ccn4)cc3)c12 [Example 31, 4-(8-amino-34(1R,5S,6S)-3-oxabicyclo[3.1.0]hexan-6-yl)imidazo[1,5-a]pyrazin-1-yl)-N-(4-(trifluoromethyl)pyridin-2-yl)benzamide, TFA salt]
16 | < 10 nM | CCNC(=O)N1C[C@H](c2nc(-c3ccc(C(=O)Nc4cc(C(F)(F)F)ccn4)cc3)c3c(N)nccn23)CC[C@H]1C (relative stereo) [Example 186, (trans)-5-(8-amino-1-(4-(4-(trifluoromethyl)pyridin-2-ylcarbamoyl)phenyl)imidazo [1,5-a]pyrazin-3-yl)-N-ethyl-2-methylpiperidine-1-carboxamide, TFA salt]
17 | < 10 nM | Cc1nnc(C(=O)N2CCC[C@@H](c3nc(-c4ccc(C(=O)Nc5cc(C6CC6)ccn5)cc4)c4c(N)nccn34)C2)o1 [Example 116, (R)-4-(8-amino-3-(1-(5-methyl-1,3,4-oxadiazole-2-carbonyl)piperidin-3-yl)imidazo[1,5-a]pyrazin-1-yl)-N-(4-cyclopropylpyridin-2-yl)benzamide]
18 | < 10 nM | CC1(C(=O)N2CCC[C@@H](n3nc(-c4ccc(C(=O)Nc5cc(C(F)(F)F)ccn5)cc4)c4c(N)ncnc43)C2)COC1 [Example 267, (R)-4-(4-amino-1-(1-(3-methyloxetane-3-carbonyl)piperidin-3-yl)-1H-pyrazolo[3,4-d]pyrimidin-3-yl)-N-(4-(trifluoromethyl)pyridin-2-yl)benzamide]
19 | < 10 nM | COCCOCCC(=O)N1CCC[C@@H](n2nc(-c3ccc(C(=O)Nc4cc(C(F)(F)F)ccn4)cc3)c3c(N)ncnc32)C1 [Example 275, (R)-4-(4-amino-1-(1-(3-(2-methoxyethoxy)propanoyl)piperidin-3-yl)-1H-pyrazolo[3,4-d]pyrimidin-3-yl)-N-(4-(trifluoromethyl)pyridin-2-yl)benzamide]
20 | < 10 nM | Cn1cc(CN2CCC[C@@H](c3nc(-c4ccc(C(=O)Nc5ccccn5)cc4)c4c(N)nccn34)C2)cn1 [Example 135, (R)-4-(8-amino-3-(1-((1-methyl-1H-pyrazol-4-yl)methyl)piperidin-3-yl)imidazo[1,5-a]pyrazin-1-yl)-N-(pyridin-2-yl)benzamide, TFA salt]
21 | < 10 nM | CCNC(=O)N[C@@H]1CCCN(c2nc(-c3ccc(C(=O)Nc4cc(C(F)(F)F)ccn4)cc3)c3c(N)nccn23)C1 [Example 221, (R)-4-(8-amino-3-(3-(3-ethylureido)piperidin-1-yl)imidazo[1,5-a]pyrazin-1-yl)-N-(4-(trifluoromethyl)pyridin-2-yl)benzamide]
